Assay results reported in patent EP0563345B1, “NOVEL 4-ARYLPIPERAZINES AND 4-ARYLPIPERIDINES” (MCNEILAB, INC., priority 1991, dated 1993).
Structures can show the parent of a compound that is named as a salt.

Tests used:
[1] = test system: Male, Fischer 344 rats; test: Block of Conditioned Avoidance Responding (Rat) test (CAR); settings: for CAR 15 mg/kg IP Administration (% change CAR) / CAR 5 mg/kg IP Administration (% change CAR): negative number = blockade of CAR
From the text: Apparatus: Rat operant chambers, housed within sound attenuated booths, both from Capden Instruments Ltd., were used in this test. The test chamber (8" H x […] D) is constructed of aluminum and plexiglass with floor grid bars of stainless-steel (1/8" O.D.) spaced 9/16" apart. A stainless-steel operation level 1-1/2" wide projects 3/4" into the chamber and is positioned 2-2/8" above the grid floor. The shock stimulus is delivered via the grid floor by a Coulbourn Instruments solid state module. The parameters of the test and the collection of data are controlled automatically.
The rats are trained for two weeks to approach criterion levels in the avoidance test (90% avoidance rate). One-hour training sessions are run at about the same time each day for four or five days a week. The training session consists of 120 trials, with the conditioned stimuli presented every 30 sec. A trial begins with presentation of the conditioned stimuli (a light and a tone). If the rat responds by depressing the operant lever during the 15-second presentation of the conditioned stimuli, the trial is terminated and the animal is credited with a CAR. Failure to respond during the conditioned stimuli causes the presentation of the unconditioned stimulus (UCS), a 0.7 mA shock which is accompanied by a light and tone for five seconds. If the rat depressed the lever within the ten-second period, the shock and trial are terminated and an escape response recorded. If the rat fails to depress the lever during the UCS (shock), the trial is terminated after ten seconds of shock and the absence of a response is scored as a failure to escape. Intertrial level presses have no effect. If a rat performs at the 90% CAR level for two weeks, it is then run twice a week on the test schedule (see below) until baseline performance stabilized.
Trained rats are run in a one-hour session on two consecutive days at the same time and in the same test chamber each day. The sessions consist of 60 trials, one every minute. The conditioned stimuli are presented for 15 sec (maximum) and the unconditioned stimuli five sec (maximum). On Day 1, a vehicle solution is administered to the rats at a time preceding the trial run corresponding to the pretreatment time for the test compound. The route of administration and the volume of vehicle are also matched to that of the test compound.
The percent change in CAR on the drug treatment day compared to vehicle pretreatment day is the key measure. The percent change (% change) in CAR is determined using the following formula: % change CAR = ((% CAR for Day 2/% CAR for Day 1) x 100)-100 [formula]
A negative number indicates a blockade of CAR, whereas a positive number would indicate increased CAR. The test results are reported as the mean % change for the group of rats. Failure to escape, a measure of the general sedative potential of the compound, was calculated for each animal as follows: % Failures = # of Failures to Escape/# of trials [formula]
The % failures, viz., loss of escape, is also reported as a group mean. Failures to escape are monitored closely and a session is terminated if ten failures occurred.
In the Tables and formulas therein, OiPr is isopropoxy, Me is methyl, MeO is methoxy, Et is ethyl, Ph is phenyl, n-Bu is normal butyl, cC6H11 is cyclohexyl, BOC is t-butyloxycarbonyl, Ac is acetyl, and NT is not tested in that partcular test. The escape loss numbers are shown at CAR 5 mg/kg unless otherwise noted.

[2] = target: T1, D-2 (dopamine-2) receptors (Rattus norvegicus, UniProt P61169); test: biochemical; format: binding, male, Wistar rats; settings: rat striatum P2 fraction, 3H-spiperone 0.05 nM; read-out: Receptor Binding (Ki nM) D2
T1 construct: The D2 assay employed a P2 fraction from the striatum, the ligand ^3H-spiperone at a concentration of 0.05 nM; from tissue; host or cells: rat striatum, P2 fraction (synaptosomal membranes), male Wistar rats
T1 sequence (P61169 whole entry): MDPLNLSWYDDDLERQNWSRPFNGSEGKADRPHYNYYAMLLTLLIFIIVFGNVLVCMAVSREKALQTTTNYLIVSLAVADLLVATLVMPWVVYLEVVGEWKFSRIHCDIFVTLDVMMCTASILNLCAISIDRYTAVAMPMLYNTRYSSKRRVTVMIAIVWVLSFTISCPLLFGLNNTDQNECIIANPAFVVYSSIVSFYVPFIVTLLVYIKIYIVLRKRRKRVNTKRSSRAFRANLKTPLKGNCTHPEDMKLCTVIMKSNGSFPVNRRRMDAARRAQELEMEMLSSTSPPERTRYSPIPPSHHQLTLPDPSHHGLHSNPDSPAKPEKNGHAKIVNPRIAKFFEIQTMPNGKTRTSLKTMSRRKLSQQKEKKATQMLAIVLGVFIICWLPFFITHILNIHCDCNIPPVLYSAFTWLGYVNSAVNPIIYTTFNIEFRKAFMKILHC
Method: The dopamine D2 binding activity of compounds was determined using a P2 fraction (synaptosomal membranes) prepared from male, Wistar rats.
The data from this assay were analyzed by calculating the percent inhibition of the binding of the tritiated ligands by given concentrations of the test compound. Kl values, where given, were obtained from the logit analysis of concentration-inhibition curves.

[3] = test system: Male Charles-River rats; test: Rat Glass Bead Test (propulsive motility of the distal colon); format: in vivo; settings: mean expulsion time of glass bead
Method: The rat glass bead test is used to evaluate the action of compounds on propulsive motility of the distal colon. Male Charles-River rats weighing 50-90 grams are fasted for at least 18 hours in individual cages with water provided. Groups of rats are then dosed by the indicated route at the appropriate pretreatment time. A 4 mm glass bead is then inserted 3.5 cm into the distal colon through the anus using a 4 mm diameter glass rod. Rats are then placed in open top glass jars and observed for 60 minutes. The time for expulsion of the bead is noted for each rat. Rats not expelling the bead after 60 minutes are necropsied and the presence of the bead in the colon confirmed. […] Statistical analysis is done using one way analysis of variance and Fisher's LSD comparison. A probability of less than 0.05 is considered to be statistically significant.

| Compound | (Escape Loss) % failures to escape ([1]; at CAR 15 mg/kg IP) | Ki [2] | (Escape Loss) % failures to escape ([1]; at CAR 5 mg/kg IP) | CAR 15 mg/kg IP Administration (% change CAR) [1] | Glass bead expulsion time ([3]; IP, 1.0 mg/kg) | CAR 5 mg/kg IP Administration (% change CAR) [1] | Glass bead expulsion time ([3]; PO, 10.0 mg/kg) | Glass bead expulsion time ([3]; PO, 40.0 mg/kg) |
| --- | --- | --- | --- | --- | --- | --- | --- | --- |
| CCOC(=O)N1CCN(C(=O)c2cccc(CN3CCN(c4ccccc4OC(C)C)CC3)c2)CC1 [Compound 63] |  | 121 nM | 1% |  | 41 min | -20% |  |  |
| CC(C)Oc1ccccc1N1CCN(Cc2cccc(C(=O)N(C)C3CCCCC3)c2)CC1 [Compound 72] |  |  | 21% |  | 29 min | -99% |  |  |
| CC(C)Oc1ccccc1N1CCN(Cc2cccc(C(=O)N3CCN(c4ccccc4)CC3)c2)CC1 [Compound 62] |  | 10.4 nM | 23% |  | 21 min | -28% |  |  |
| CC(C)Oc1ccccc1N1CCN(Cc2cccc(C(=O)N3CCCCC3=O)c2)CC1.O=C(O)/C=C/C(=O)O [Compound 66, 1-[3-[[4-[2-(1-Methylethoxy)phenyl]-1-piperazinyl]methyl]benzoyl]-2-piperidone Fumarate] | 0% |  |  | -92% | 18 min |  |  |  |
| O=C(c1cccc(CN2CCN(c3nsc4ccccc34)CC2)c1)N1CCCCC1 [Compound 32] |  |  | 8% |  | 41 min | -90% |  |  |
| CC(C)Oc1ccccc1N1CCN(Cc2cccc(C(=O)N3CCCC(C)(C)C3)c2)CC1 [Compound 57] |  | 4.8 nM | 25% |  | 22 min | -86% |  |  |
| CC(C)Oc1cc(F)ccc1N1CCN(Cc2cccc(C(=O)N3CCCCCC3)c2)CC1 [Compound 79] |  | 12 nM | 44% |  | 17 min | -86% |  |  |
| CC(C)Oc1ccccc1N1CCN(Cc2cccc(C(=O)NC3CCCCC3)c2)CC1 [Compound 71] | 0% |  |  | -86% | 23 min |  |  |  |
| CC(C)Oc1ccccc1N1CCN(Cc2cccc(C(N)=O)c2)CC1 [Compound 77] |  | 46 nM | 27% |  | 12 min | -89% |  |  |
| CCCCN(C)C(=O)c1cccc(CN2CCN(c3ccccc3OC(C)C)CC2)c1 [Compound 70] |  | 15 nM | 2% |  | 14 min | -68% |  |  |
| CC(C)Oc1cc(F)ccc1N1CCN(Cc2cccc(C(=O)N3CCCCC3)c2)CC1 [Compound 78] |  |  | 4% |  | 28 min | -82% |  |  |
| CC(=O)N(C)C(=O)c1cccc(CN2CCN(c3ccccc3OC(C)C)CC2)c1 [Compound 73] |  |  | 22% |  |  | -48% |  | 25 min |
| CCCc1ccccc1N1CCN(Cc2cccc(C(=O)N3CCCCC3)c2)CC1 [Compound 81] | 0% |  |  | -8% | 22 min |  |  |  |
| CC1CCN(C(=O)c2cccc(CN3CCN(c4ccccc4OC(C)C)CC3)c2)CC1 [Compound 58] |  | 9 nM | 9% |  | 29 min | -81% |  |  |
| CC(C)Oc1ccccc1N1CCN(Cc2cccc(C(=O)N3[C@H](C)CCC[C@@H]3C)c2)CC1 [Compound 59, 1-[3-[[4-[2-(1-Methylethoxy)phenyl]-1-piperazinyl]methyl]-benzoyl]-2,6-dimethylpiperidine hydrochloride (3:2)] |  | 7.2 nM | 10% |  | 43 min | -72% |  |  |
| CC(C)Oc1ccccc1N1CCN(Cc2cccc(C(=O)N3CCCCCCC3)c2)CC1 [Compound 55] |  |  | 27% |  | 13 min | -93% |  |  |
| COc1cc2c(cc1OC)CN(C(=O)c1cccc(CN3CCN(c4ccccc4OC(C)C)CC3)c1)CC2 [Compound 60] | 7% | 11 nM |  | -93% | 18 min |  |  |  |

Further lines, with some results ahead:

| (Escape Loss) % failures to escape ([1]; at CAR 15 mg/kg IP) | Ki [2] | (Escape Loss) % failures to escape ([1]; at CAR 5 mg/kg IP) | Compound | CAR 15 mg/kg IP Administration (% change CAR) [1] | Glass bead expulsion time ([3]; IP, 1.0 mg/kg) | CAR 5 mg/kg IP Administration (% change CAR) [1] | Glass bead expulsion time ([3]; PO, 10.0 mg/kg) | Glass bead expulsion time ([3]; PO, 40.0 mg/kg) |
| --- | --- | --- | --- | --- | --- | --- | --- | --- |
| 17% | 121 nM |  | COc1ccccc1N1CCN(Cc2cccc(C(=O)N3CCCCCCC3=O)c2)CC1 [Compound 86] | -27% | 22 min |  |  |  |
|  | 16 nM |  | CC(C)Oc1ccccc1N1CCN(Cc2ccccc2C(=O)N(C)C2CCCC2)CC1 [Compound 112] |  | 11 min |  |  |  |
| 0% | 41 nM |  | CCCc1ccccc1N1CCN(Cc2cccc(C(=O)N3CCCCCC3)c2)CC1 [Compound 82] | -8% | 16 min |  |  |  |
| 0% |  |  | O=C(c1cccc(CN2CCN(c3ccccc3Cl)CC2)c1)N1CCCCC1 [Compound 89] | -68% | 16 min |  |  |  |
|  | 11 nM |  | CC(C)Oc1ccccc1N1CCN(Cc2ccccc2C(=O)N2CCCCCC2)CC1 [Compound 113] |  |  |  | 15 min |  |
| 3% |  |  | O=C(c1cccc(CN2CCN(c3cccc(C(F)(F)F)c3)CC2)c1)N1CCCCC1 [Compound 92] | -72% | 17 min |  |  |  |
|  |  | 5% | N#Cc1ccccc1N1CCN(Cc2cccc(C(=O)N3CCCCC3)c2)CC1 [Compound 90] |  | 27 min | -74% |  |  |
|  | ~100 nM |  | CC(C)Oc1ccccc1N1CCN(Cc2ccc(C(=O)N3CCCCC3)cc2)CC1.Cl.Cl [Compound 103, 1-[4-[[4-[2-(1-Methylethoxy)phenyl]-1-piperazinyl]methyl]benzoyl]piperidine Dihydrochloride] |  | 43 min |  |  |  |
|  | 45 nM | 2% | CC(C)Oc1ccccc1N1CCN(Cc2cccc(S(=O)(=O)N3CCCC(C)(C)C3)c2)CC1 [Compound 104] |  |  | -4% | 50 min |  |
|  | 18 nM | 0% | CC(C)Oc1ccccc1N1CCN(Cc2cccc(S(=O)(=O)N3CCCCC3)c2)CC1 [Compound 105] |  |  | -7% | 10 min |  |
| 7% | 281 nM |  | O=C(c1cccc(CN2CCN(c3ccccc3C(F)(F)F)CC2)c1)N1CCCCC1 [Compound 88] | -60% | 29 min |  |  |  |
